Data taken from US5021415A, “Triazine carboxylic acids and esters” (Bristol-Myers Squibb Co., priority 1990, dated 1991).
In brackets after ≈: the same amount, converted by molar mass.

test system: ADP-induced aggregation of human platelets; type: cell-based; conditions: vs ADP, 0.5 mcg/mL final; human platelet rich plasma; Table 2; read-out: Inhibition of Human Platelet Aggregation of Formula II Compounds (IC50) Vs ADP
Protocol: The aggregometer method of Born, C.V.R., J. Physiol., (London), 1962, 162, 67-68, as modified by Mustard, J.F., et al., J. Lab. […] The blood is immediately added to a test tube containing 3.8% sodium citrate to prevent clotting (1 part citrate to 9 parts blood).
Platelet rich plasma (PRP) was separated by centrifugation for 10 minutes at 1000 rpm (140xg) from citrated (3.8%) human blood. All glassware used for preparation of PRP is silicon treated. ADP in final concentration of 0.5 mcg/mL or 0.05 mL of a collagen suspension prepared according to the method described by Evans, G., et al., J. Exp. Med., 1968, 128, 877-894 was used to induce aggregation. The various compounds tested were dissolved in dimethylsulfoxide (DMSO) so that 5 mcl added to the platelet rich plasma would yield the desired test concentration. Vehicle control trials were done and compared with aggregation induced in platelet rich plasma containing various concentrations of the test compounds. Dose response curves were obtained and Inhibitor Concentration (IC50) values calculated.

Question: Which IC50 does the source give for `COC(=O)COc1cccc(CCn2nc(-c3ccccc3)c(-c3ccccc3)nc2=O)c1` [Example 5, Methyl [3-[2-(2,3-dihydro-3-oxo-5,6-diphenyl-1,2,4-triazin-2-yl)ethyl]phenoxy]acetate] here?
Answer: 1 µg/mL (≈ 2.27 µM)

Question: With `O=C(O)COc1cccc(CCn2nc(-c3ccccc3)c(-c3ccccc3)nc2=O)c1` [Example 6, [3-[2-(2,3-Dihydro-3-oxo-5,6-diphenyl 1,2,4-triazin-2-yl)ethyl]phenoxy]acetic Acid] as the compound, how does the IC50 read?
Answer: 0.9 µg/mL (≈ 2.11 µM)

same assay, conditions: vs. ADP, 0.5 mcg/mL final; human platelet rich plasma; Table 1; read-out: Inhibition of Human Platelet Aggregation of Formula I Compounds (IC50) vs. ADP

Question: With `O=C(O)CCCCCCCn1nc(-c2ccccc2)c(-c2ccccc2)nc1=O` [Example 4, 3-Oxo-5,6-diphenyl-1,2,4-triazin-2(3H)-octanoic Acid] as the compound, how does the IC50 read?
Answer: 3.1 µg/mL (≈ 7.92 µM)

Question: `COC(=O)CCCCCCCn1nc(-c2ccccc2)c(-c2ccccc2)nc1=O` [Example 3, Methyl 3-Oxo-5,6-diphenyl-1,2,4-triazine-2(3H)-octanoate] was tested. Which IC50 did it give?
Answer: 4.6 µg/mL (≈ 11.3 µM)

Question: How did the IC50 turn out when `O=C(O)CCCCCCCCn1nc(-c2ccccc2)c(-c2ccccc2)nc1=O` [Example 2, 3-Oxo-5,6-diphenyl-1,2,4-triazine-2(3H)-nonanoic acid] was run?
Answer: 2.2 µg/mL (≈ 5.43 µM)

Question: How did the IC50 turn out when `COC(=O)CCCCCCCCn1nc(-c2ccccc2)c(-c2ccccc2)nc1=O` [Example 1, Methyl 3-oxo-5,6-diphenyl-1,2,4-triazine-2(3H)-nonanoate] was run?
Answer: 6.8 µg/mL (≈ 16.2 µM)
